According to US20240382483A1, “HETEROCYCLIC EGFR INHIBITORS FOR USE IN THE TREATMENT OF CANCER” (Blueprint Medicines Corporation, priority 2021, published 2024):

Key:
[1] = tested on: EGFR mutant NSCLC (EGFR M+); conditions: NSCLC patients; cited from earlier work
[2] = molecular target: T1, EGFR (L858R T790M C797S) (Homo sapiens, UniProt P00533, C797S/L858R/T790M); experiment: Biochemical EGFR inhibition assay (Caliper mobility shift), EGFR LRTMCS; conditions: LRTMCS (PH) IC50 (nM) @ 1 mM ATP (Num), EGFR LRTMCS mutant
T1 construct: purchased SignalChem E10-122VG
T1 sequence (P00533 25-1210 T790M/C797S/L858R): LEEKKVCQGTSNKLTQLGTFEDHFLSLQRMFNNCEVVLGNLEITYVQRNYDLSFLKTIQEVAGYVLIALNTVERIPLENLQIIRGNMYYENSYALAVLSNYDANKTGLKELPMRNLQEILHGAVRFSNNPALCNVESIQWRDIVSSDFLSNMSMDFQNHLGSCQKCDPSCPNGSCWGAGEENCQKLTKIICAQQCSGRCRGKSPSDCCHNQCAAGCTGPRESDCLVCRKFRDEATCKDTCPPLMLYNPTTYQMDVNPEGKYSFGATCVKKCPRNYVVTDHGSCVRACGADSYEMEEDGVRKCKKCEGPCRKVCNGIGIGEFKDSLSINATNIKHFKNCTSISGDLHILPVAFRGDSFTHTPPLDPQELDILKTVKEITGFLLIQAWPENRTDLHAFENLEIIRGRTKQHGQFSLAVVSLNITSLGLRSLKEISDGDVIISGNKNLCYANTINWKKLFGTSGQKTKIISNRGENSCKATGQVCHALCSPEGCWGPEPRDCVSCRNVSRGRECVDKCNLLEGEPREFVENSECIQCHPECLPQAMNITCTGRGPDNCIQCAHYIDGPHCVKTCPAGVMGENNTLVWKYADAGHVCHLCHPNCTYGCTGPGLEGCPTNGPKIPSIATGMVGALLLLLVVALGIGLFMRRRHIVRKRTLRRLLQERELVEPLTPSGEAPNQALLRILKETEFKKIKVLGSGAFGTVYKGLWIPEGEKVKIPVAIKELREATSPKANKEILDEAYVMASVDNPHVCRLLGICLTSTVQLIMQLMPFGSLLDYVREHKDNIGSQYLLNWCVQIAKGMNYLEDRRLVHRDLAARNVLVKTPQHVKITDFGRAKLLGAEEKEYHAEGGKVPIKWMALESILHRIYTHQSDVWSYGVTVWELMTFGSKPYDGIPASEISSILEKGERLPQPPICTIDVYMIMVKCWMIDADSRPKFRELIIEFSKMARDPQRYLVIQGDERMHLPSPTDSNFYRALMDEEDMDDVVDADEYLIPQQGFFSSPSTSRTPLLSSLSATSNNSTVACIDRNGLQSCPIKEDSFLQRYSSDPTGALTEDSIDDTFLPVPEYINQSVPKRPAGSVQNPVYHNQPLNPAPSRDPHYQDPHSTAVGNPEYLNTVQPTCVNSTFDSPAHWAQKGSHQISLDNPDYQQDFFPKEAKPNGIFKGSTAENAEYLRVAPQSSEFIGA
Method in brief: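 Caliper mobility shift read-out: product and substrate peptides separated by electrophoresis and quantified. Reactions at 25° C. taken to 10–20% peptide phosphorylation, quenched with 35 mM EDTA. Apparent IC50 from percent activity vs log [compound].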

[3] = molecular target: T2, intracellular phosphorylation of EGFR in NCI-H1975 cell line that harbors the EGFR L858R T790M mutations (Homo sapiens, UniProt P00533, L858R/T790M); experiment: NCI-H1975 pEGFR AlphaLISA assay; assay type: cell-based; conditions: NCI-H1975 cells (EGFR L858R T790M), p-EGFR (Tyr1068), 4-5 hours incubation; read-out: Ext pEGFR H1975 GMean IC50 (nM) Protocol: @Pharmaron AlphaLISA (Num)
T2 construct: NCI-H1975 cell line that harbors the EGFR L858R T790M mutations (ATCC, CRL-5908); host or cells: NCI-H1975
T2 sequence (P00533 25-1210 T790M/L858R): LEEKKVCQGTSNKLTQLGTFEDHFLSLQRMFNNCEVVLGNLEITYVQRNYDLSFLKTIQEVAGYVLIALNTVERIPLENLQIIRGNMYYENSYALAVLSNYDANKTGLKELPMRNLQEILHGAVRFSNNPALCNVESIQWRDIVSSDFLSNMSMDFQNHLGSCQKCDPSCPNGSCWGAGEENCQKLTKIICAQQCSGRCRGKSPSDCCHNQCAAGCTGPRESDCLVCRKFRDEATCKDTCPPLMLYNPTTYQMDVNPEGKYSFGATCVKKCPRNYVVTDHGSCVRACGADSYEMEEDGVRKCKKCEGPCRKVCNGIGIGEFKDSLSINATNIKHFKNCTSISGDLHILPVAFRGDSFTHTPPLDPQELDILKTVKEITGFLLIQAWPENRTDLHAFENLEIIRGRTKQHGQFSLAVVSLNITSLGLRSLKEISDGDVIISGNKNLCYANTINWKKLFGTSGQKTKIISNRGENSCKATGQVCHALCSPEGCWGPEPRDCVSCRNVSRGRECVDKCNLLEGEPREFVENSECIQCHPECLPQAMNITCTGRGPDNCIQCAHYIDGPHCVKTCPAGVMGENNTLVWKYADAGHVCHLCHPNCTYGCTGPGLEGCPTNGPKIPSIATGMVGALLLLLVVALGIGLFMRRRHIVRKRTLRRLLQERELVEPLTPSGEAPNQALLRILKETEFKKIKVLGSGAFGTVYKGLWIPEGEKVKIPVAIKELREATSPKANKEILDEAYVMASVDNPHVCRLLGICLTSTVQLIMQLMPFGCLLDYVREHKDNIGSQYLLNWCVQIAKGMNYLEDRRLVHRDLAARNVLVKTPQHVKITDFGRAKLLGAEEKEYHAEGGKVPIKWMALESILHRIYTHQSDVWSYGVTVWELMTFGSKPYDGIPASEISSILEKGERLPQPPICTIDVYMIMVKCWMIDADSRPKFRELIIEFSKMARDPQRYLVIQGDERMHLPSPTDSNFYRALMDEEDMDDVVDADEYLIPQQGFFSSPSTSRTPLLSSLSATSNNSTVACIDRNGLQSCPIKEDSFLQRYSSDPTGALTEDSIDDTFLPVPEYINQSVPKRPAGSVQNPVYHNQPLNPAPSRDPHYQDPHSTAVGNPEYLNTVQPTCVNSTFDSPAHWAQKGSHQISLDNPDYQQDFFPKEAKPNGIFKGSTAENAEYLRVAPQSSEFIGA
Method: On the next day, the test compounds and DMSO control were added into H1975 cell plate followed by incubation at 37C/5% CO2 for 4-5 hours. […] Then 5 μL of a donor bead mix was added to each well followed by overnight incubation at room temperature in dark. On the next day, the plate was read at a compatible plate reader to obtain pEGFR signal. Percent of pEGFR inhibition was plotted against log concentration of compounds to generate IC50 values.

C=CC(=O)Nc1cc(Nc2nccc(-c3cn(C)c4ccccc34)n2)c(OC)cc1N(C)CCN(C)C [osimertinib]
time of treatment until resistance [1]: approximately 10 months

CC(C)c1cnc(N2CC(F)(C(=O)N(C)C)C2)c2cnc(Nc3ccnc(N4CC[C@@H](O)[C@@](C)(F)C4)n3)cc12 [Example 92, 3-fluoro-1-(6-((2-((3S,4R)-3-fluoro-4-hydroxy-3-methylpiperidin-1-yl)pyrimidin-4-yl)amino)-4-isopropyl-2,7-naphthyridin-1-yl)-N,N-dimethylazetidine-3-carboxamide]
IC50 [2]: 15 to 20 nM
IC50 [3]: 30 to 50 nM

CC(C)c1cnc(N2C[C@H](O)[C@H]2C)c2cnc(Nc3ccnc(N4C[C@@H](F)[C@@H](O)[C@@](C)(F)C4)n3)cc12 (single isomer, unassigned) [Example 133, (3S,4R,5R)-3,5-difluoro-1-(4-((8-((2R,3S)-3-hydroxy-2-methylazetidin-1-yl)-5-isopropyl-2,7-naphthyridin-3-yl)amino)pyrimidin-2-yl)-3-methylpiperidin-4-ol or (3R,4S,5S)-3,5-difluoro-1-(4-((8-((2R,3S)-3-hydroxy-2-methylazetidin-1-yl)-5-isopropyl-2,7-naphthyridin-3-yl)amino)pyrimidin-2-yl)-3-methylpiperidin-4-ol]
IC50 [2]: < 15 nM
IC50 [3]: 10 to 20 nM

[2H]C([2H])([2H])O[C@H]1CCN(c2nccc(Nc3cc4c(C(C)C)cnc(N5C[C@H](OCCO)[C@H]5C)c4cn3)n2)C[C@H]1F [Example 137, 2-(((2R,3S)-1-(6-((2-((3R,4S)-3-fluoro-4-(methoxy-d3)piperidin-1-yl)pyrimidin-4-yl)amino)-4-isopropyl-2,7-naphthyridin-1-yl)-2-methylazetidin-3-yl)oxy)ethan-1-ol]
IC50 [2]: < 15 nM
IC50 [3]: < 10 nM
